Measurements reported in ChEMBL document CHEMBL1141575, “Preparation and in vitro biological evaluation of tetrapyrrole ethanolamide derivatives as potential anticancer agents” (Bioorg Med Chem Lett, 2008).

Legend:
HeLa [1] = assay: Survival of human HeLa cells at 0.01 uM under deem light after 96 hrs by MTT assay relative to control; format: functional; conditions: read-out: Survival
HeLa [2] = assay: Survival of human HeLa cells at 0.1 uM under deem light after 96 hrs by MTT assay relative to control; format: functional; conditions: read-out: Survival
HeLa [3] = assay: Survival of human HeLa cells at 10 uM under deem light after 96 hrs by MTT assay relative to control; format: functional; conditions: read-out: Survival
HeLa [4] = assay: Survival of human HeLa cells at 50 uM under deem light after 96 hrs by MTT assay relative to control; format: functional; conditions: read-out: Survival
HeLa [5] = assay: Survival of human HeLa cells at 100 uM under deem light after 96 hrs by MTT assay relative to control; format: functional; conditions: read-out: Survival
NCI-H69 [6] = assay: Survival of human H69 cells at 0.01 uM under deem light after 96 hrs by MTT assay relative to control; format: functional; conditions: NCI-H69, 96 h, read-out: Survival
NCI-H69 [7] = assay: Survival of human H69 cells at 0.1 uM under deem light after 96 hrs by MTT assay relative to control; format: functional; conditions: NCI-H69, 96 h, read-out: Survival
NCI-H69 [8] = assay: Survival of human H69 cells at 10 uM under deem light after 96 hrs by MTT assay relative to control; format: functional; conditions: NCI-H69, 96 h, read-out: Survival
NCI-H69 [9] = assay: Survival of human H69 cells at 50 uM under deem light after 96 hrs by MTT assay relative to control; format: functional; conditions: NCI-H69, 96 h, read-out: Survival
NCI-H69 [10] = assay: Survival of human H69 cells at 100 uM under deem light after 96 hrs by MTT assay relative to control; format: functional; conditions: NCI-H69, 96 h, read-out: Survival
[11] = Survival of human H209 cells at 0.01 uM under deem light after 96 hrs by MTT assay relative to control; format: functional; conditions: NCI-H209, 96 h, read-out: Survival
[12] = Survival of human H209 cells at 0.1 uM under deem light after 96 hrs by MTT assay relative to control; format: functional; conditions: NCI-H209, 96 h, read-out: Survival
[13] = Survival of human H209 cells at 10 uM under deem light after 96 hrs by MTT assay relative to control; format: functional; conditions: NCI-H209, 96 h, read-out: Survival
[14] = Survival of human H209 cells at 50 uM under deem light after 96 hrs by MTT assay relative to control; format: functional; conditions: NCI-H209, 96 h, read-out: Survival
[15] = Survival of human H209 cells at 100 uM under deem light after 96 hrs by MTT assay relative to control; format: functional; conditions: NCI-H209, 96 h, read-out: Survival
[16] = Survival of human 2780.9S cells at 0.01 uM under deem light after 96 hrs by MTT assay relative to control; format: functional; conditions: read-out: Survival
[17] = Survival of human 2780.9S cells at 0.1 uM under deem light after 96 hrs by MTT assay relative to control; format: functional; conditions: read-out: Survival
[18] = Survival of human 2780.9S cells at 10 uM under deem light after 96 hrs by MTT assay relative to control; format: functional; conditions: read-out: Survival
[19] = Survival of human 2780.9S cells at 50 uM under deem light after 96 hrs by MTT assay relative to control; format: functional; conditions: read-out: Survival
[20] = Survival of human 2780.9S cells at 100 uM under deem light after 96 hrs by MTT assay relative to control; format: functional; conditions: read-out: Survival
[21] = Survival of human MDA-MB cells at 0.01 uM under deem light after 96 hrs by MTT assay relative to control; format: functional; conditions: read-out: Survival
[22] = Survival of human MDA-MB cells at 0.1 uM under deem light after 96 hrs by MTT assay relative to control; format: functional; conditions: read-out: Survival
[23] = Survival of human MDA-MB cells at 10 uM under deem light after 96 hrs by MTT assay relative to control; format: functional; conditions: read-out: Survival
[24] = Survival of human MDA-MB cells at 50 uM under deem light after 96 hrs by MTT assay relative to control; format: functional; conditions: read-out: Survival
[25] = Survival of human MDA-MB cells at 100 uM under deem light after 96 hrs by MTT assay relative to control; format: functional; conditions: read-out: Survival
SiHa [26] = assay: Cytotoxicity against human SIHA cells under deem light after 96 hrs by MTT assay; format: functional, cell-based
Raji [27] = assay: Cytotoxicity against human Raji cells under deem light after 96 hrs by MTT assay; format: functional, cell-based
[28] = Cytotoxicity against human MDA-MB cells under deem light after 96 hrs by MTT assay; format: functional, cell-based
K562 [29] = assay: Cytotoxicity against human K562 cells under deem light after 96 hrs by MTT assay; format: functional, cell-based; conditions: K562, 96 h
HeLa [30] = assay: Cytotoxicity against human HeLa cells under deem light after 96 hrs by MTT assay; format: functional, cell-based
NCI-H69 [31] = assay: Cytotoxicity against human H69 cells under deem light after 96 hrs by MTT assay; format: functional, cell-based; conditions: NCI-H69, 96 h
Daudi = assay: Cytotoxicity against human Daudi cells under deem light after 96 hrs by MTT assay; format: functional, cell-based
[32] = Cytotoxicity against human 2780.9S cells under deem light after 96 hrs by MTT assay; format: functional, cell-based
[33] = Photohemolysis in human RBC in absence of light; format: ADME, cell-based; conditions: erythrocyte
SiHa [34] = assay: Survival of human SIHA cells at 0.1 uM under deem light after 96 hrs by MTT assay relative to control; format: functional; conditions: read-out: Survival
SiHa [35] = assay: Survival of human SIHA cells at 10 uM under deem light after 96 hrs by MTT assay relative to control; format: functional; conditions: read-out: Survival
SiHa [36] = assay: Survival of human SIHA cells at 50 uM under deem light after 96 hrs by MTT assay relative to control; format: functional; conditions: read-out: Survival
K562 [37] = assay: Survival of human K562 cells at 0.01 uM under deem light after 96 hrs by MTT assay relative to control; format: functional; conditions: K562, 96 h, read-out: Survival
K562 [38] = assay: Survival of human K562 cells at 0.1 uM under deem light after 96 hrs by MTT assay relative to control; format: functional; conditions: K562, 96 h, read-out: Survival
K562 [39] = assay: Survival of human K562 cells at 10 uM under deem light after 96 hrs by MTT assay relative to control; format: functional; conditions: K562, 96 h, read-out: Survival
K562 [40] = assay: Survival of human K562 cells at 50 uM under deem light after 96 hrs by MTT assay relative to control; format: functional; conditions: K562, 96 h, read-out: Survival
K562 [41] = assay: Survival of human K562 cells at 100 uM under deem light after 96 hrs by MTT assay relative to control; format: functional; conditions: K562, 96 h, read-out: Survival
Raji [42] = assay: Survival of human Raji cells at 0.01 uM under deem light after 96 hrs by MTT assay relative to control; format: functional; conditions: read-out: Survival
Raji [43] = assay: Survival of human Raji cells at 0.1 uM under deem light after 96 hrs by MTT assay relative to control; format: functional; conditions: read-out: Survival
Raji [44] = assay: Survival of human Raji cells at 10 uM under deem light after 96 hrs by MTT assay relative to control; format: functional; conditions: read-out: Survival
Raji [45] = assay: Survival of human Raji cells at 50 uM under deem light after 96 hrs by MTT assay relative to control; format: functional; conditions: read-out: Survival
Raji [46] = assay: Survival of human Raji cells at 100 uM under deem light after 96 hrs by MTT assay relative to control; format: functional; conditions: read-out: Survival

COc1cccc2c1C(=O)c1c(O)c3c(c(O)c1C2=O)C[C@@](O)(C(=O)CO)C[C@@H]3O[C@H]1C[C@H](N)[C@H](O)[C@H](C)O1 [DOXORUBICIN]
viability at 0.01 µM (HeLa [1]): 97.5%
viability at 0.1 µM (HeLa [2]): 81.4%
viability at 10 µM (HeLa [3]): 20.2%
viability at 50 µM (HeLa [4]): 7%
viability at 100 µM (HeLa [5]): 6.1%
viability at 0.01 µM (NCI-H69 [6]): 86.5%
viability at 0.1 µM (NCI-H69 [7]): 82.2%
viability at 10 µM (NCI-H69 [8]): 37.7%
viability at 50 µM (NCI-H69 [9]): 16.8%
viability at 100 µM (NCI-H69 [10]): 6.6%
viability at 0.01 µM [11]: 85.6%
viability at 0.1 µM [12]: 85.6%
viability at 10 µM [13]: 23.1%
viability at 50 µM [14]: 5.8%
viability at 100 µM [15]: 1.5%
viability at 0.01 µM [16]: 108%
viability at 0.1 µM [17]: 105%
viability at 10 µM [18]: 56.9%
viability at 50 µM [19]: 13.8%
viability at 100 µM [20]: 7.4%
viability at 0.01 µM [21]: 121%
viability at 0.1 µM [22]: 96.8%
viability at 10 µM [23]: 50.5%
viability at 50 µM [24]: 11.8%
viability at 100 µM [25]: 5%
IC50 (SiHa [26]): 500 nM
IC50 (Raji [27]): 2000 nM
IC50 [28]: 9000 nM
IC50 (K562 [29]): 1000 nM
IC50 (HeLa [30]): 2000 nM
IC50 (NCI-H69 [31]): 3000 nM
IC50 (Daudi): 300 nM
IC50 [32]: 15000 nM
Activity [33]: Non-toxic
viability at 0.1 µM (SiHa [34]): 72.2%
viability at 10 µM (SiHa [35]): 4.4%
viability at 50 µM (SiHa [36]): 3.5%
viability at 0.01 µM (K562 [37]): 116%
viability at 0.1 µM (K562 [38]): 100%
viability at 10 µM (K562 [39]): 22.1%
viability at 50 µM (K562 [40]): 9.5%
viability at 100 µM (K562 [41]): 7.5%
viability at 0.01 µM (Raji [42]): 110%
viability at 0.1 µM (Raji [43]): 106%
viability at 10 µM (Raji [44]): 8.6%
viability at 50 µM (Raji [45]): 2.5%
viability at 100 µM (Raji [46]): 1.1%
